This note sets out measurements from US9474790B2, “Stable, protracted GLP-1/glucagon receptor co-agonists for medical use” (Novo Nordisk A/S, priority 2013, dated 2016).

This assay deals with T1, human GLP-1 receptor (Homo sapiens, UniProt P43220).
T1 construct: expressed in transfected cells; host or cells: BHK cells (parent BHKTS13), clone FCW467-12A/KZ10-1, with CRE luciferase
Put plainly: GLP-1 receptor potency, CRE luciferase reporter gene assay in BHK cells. It counts as cell-based. Conditions: BHK cells expressing human GLP-1 receptor, read-out: EC50 GLP-1R. The protocol: The purpose of this example was to test the potency, of the glucagon derivatives of the invention, in vitro. The in vitro potency is the measure of human GLP-1 receptor or glucagon receptor activation, respectively, in a whole cell assay.
In vitro potency was determined by measuring the response of human GLP-1 or glucagon receptor, respectively, in a reporter gene assay. The assay was performed in a stably transfected BHK cell line that expresses either the human GLP-1 receptor or the human glucagon receptor and contains the DNA for the cAMP response element (CRE) coupled to a promoter and the gene for firefly luciferase (CRE luciferase). […] When assay incubation was completed, the luciferase substrate (luciferin) was added and the enzyme converted luciferin to oxyluciferin and produces bioluminescence. The luminescence was measured as the readout for the assay.
The cells used in this assay (clone FCW467-12A/KZ10-1) were BHK cells with BHKTS13 as a parent cell line. The cells were derived from a clone (FCW467-12A) that expresses the human GLP-1 receptor and were established by further transfection with
CRE luciferase to obtain the current clone.
The cells were cultured at 5% CO2 in DMEM medium with 10% FBS, 1×GlutaMAX, 1 mg/ml G418, 240 nM MTX (methotrexate) and 1% pen/strep (penicillin/streptomycin). They were aliquoted and stored in liquid nitrogen. Before each assay, an aliquot was taken up and washed three times in PBS before being suspended at the desired concentration in assay medium. For 96-well plates the suspension was made to give a final concentration of 5×10EE3 cells/well.
The following chemicals were used in the assay: Pluronic F-68 (10%) (Gibco 2404), ovalbumin (Sigma A5503), DMEM w/o phenol red (Gibco 11880-028), 1 M Hepes (Gibco 15630), Glutamax 100× (Gibco 35050) and steadylite plus (PerkinElmer 6016757).
Assay Medium consisted of DMEM w/o phenol red, 10 mM Hepes, lx GlutaMAX, 2% Ovalbumin and 0.2% Pluronic F-68.
Cell stocks were thawed in a 37° C. water bath. Cells were washed three times in PBS. The cells were counted and adjusted to 5×10EE3 cells/50 μl (1×10EE5 cells/ml) in Assay Medium. A 50 μl aliquot of cells was transferred to each well in the assay plate.
Stocks of the test compounds and reference compounds were diluted to a concentration of […] in Assay Medium. Compounds were diluted 10-fold to give the following concentrations: 2×10EE-6 M, 2×10EE-7 M, 2×10EE-8 M; 2×10EE-9 M, 2×10EE-10 M, 2×10EE-11 M, 2×10EE-12 M and 2×10EE-13 M. For each compound a blank assay medium control was also included.
A 50 μl aliquot of compound or blank was transferred from the dilution plate to the assay plate. Compounds were tested at the following final concentrations: 1×10EE-6 M, 1×10EE-7 M, 1×10EE-8 M; 1×10EE-9 M, 1×10EE-10 M, 1×10EE-11 M and 1×10EE-12 M and 1×10EE-13 M.
The assay plate was incubated for 3 h in a 5% CO2 incubator at 37° C. The assay plate was removed from the incubator and allowed to stand at room temperature for 15 min. A 100 μl aliquot of steadylite plus reagent was added to each well of the assay plate (reagent is light sensitive). Each assay plate was covered with aluminum foil to protect it from light and shaken for 30 min at room temperature. Each assay plate was read in a Perkin Elmer TopCount NXT instrument.
The data from the TopCount instrument was transferred to GraphPad Prism software. The software performed a non-linear regression (log(agonist) vs response-Variable slope (four parameter)). EC50 values were calculated by the software and reported in pM.

Numbered stars: 1 amine (or outer) side, 2 acyl side, 3 side chain; on linkers, the order of the positions; unused ones are H or OH. Square brackets hold non-standard residues; d marks the D form. Side chains are listed from the residue outwards. Peptide text beside a SMILES is read from it. * marks the point of attachment. C18 diacid = O=C(O)CCCCCCCCCCCCCCCCC(=O)*; γGlu = O=C(O)[C@H](CCC(=O)[*:2])N[*:1]; AEEA = NCCOCCOCC(=O)O; Aib = CC(C)(N)C(=O)O

T1 sequence (P43220 24-463): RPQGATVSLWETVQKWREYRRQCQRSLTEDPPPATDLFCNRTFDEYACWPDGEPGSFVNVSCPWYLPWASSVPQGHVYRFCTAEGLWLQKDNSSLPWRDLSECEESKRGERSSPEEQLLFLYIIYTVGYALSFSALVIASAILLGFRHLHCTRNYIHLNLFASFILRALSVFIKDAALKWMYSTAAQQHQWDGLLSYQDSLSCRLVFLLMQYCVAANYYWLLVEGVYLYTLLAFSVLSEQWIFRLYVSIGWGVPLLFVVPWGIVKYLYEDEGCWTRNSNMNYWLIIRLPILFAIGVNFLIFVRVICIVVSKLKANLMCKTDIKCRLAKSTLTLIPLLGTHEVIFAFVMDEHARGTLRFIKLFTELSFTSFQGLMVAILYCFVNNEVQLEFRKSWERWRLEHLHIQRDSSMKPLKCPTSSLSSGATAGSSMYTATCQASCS

Consider `CC(C)C[C@H](NC(=O)[C@H](Cc1ccc(O)cc1)NC(=O)[C@H](CCCCN)NC(=O)[C@H](CO)NC(=O)[C@H](CC(C)C)NC(=O)[C@H](CC(=O)O)NC(=O)[C@H](CO)NC(=O)[C@@H](NC(=O)[C@H](Cc1ccccc1)NC(=O)[C@@H](NC(=O)CNC(=O)[C@H](CCC(N)=O)NC(=O)C(C)(C)NC(=O)[C@@H](N)Cc1c[nH]cn1)[C@@H](C)O)[C@@H](C)O)C(=O)N[C@@H](CC(=O)O)C(=O)N[C@@H](CO)C(=O)N[C@@H](CCCNC(=N)N)C(=O)N[C@@H](CCCNC(=N)N)C(=O)N[C@@H](C)C(=O)N[C@@H](CCCNC(=N)N)C(=O)N[C@@H](CCCCNC(=O)CC[C@H](NC(=O)CC[C@H](NC(=O)COCCOCCNC(=O)COCCOCCNC(=O)CC[C@H](NC(=O)CCCCCCCCCCCCCCCCC(=O)O)C(=O)O)C(=O)O)C(=O)O)C(=O)N[C@@H](Cc1ccccc1)C(=O)N[C@H](C(=O)N[C@@H](CCC(N)=O)C(=O)N[C@@H](Cc1c[nH]c2ccccc12)C(=O)N[C@@H](CC(C)C)C(=O)N[C@@H](CC(C)C)C(=O)N[C@@H](CO)C(=O)N[C@H](C(N)=O)[C@@H](C)O)C(C)C` [Example 2] (H-H[Aib]QGTFTSDLSKYLDSRRARK([γGlu-γGlu-AEEA-AEEA-γGlu-C18 diacid])FVQWLLST-NH2; N-terminus assumed), for which the EC50 came out at 0.044 nM.

As for `CC(C)C[C@H](NC(=O)[C@H](Cc1ccc(O)cc1)NC(=O)[C@H](CCCCN)NC(=O)[C@H](CO)NC(=O)[C@H](CC(C)C)NC(=O)[C@H](CC(=O)O)NC(=O)[C@H](CO)NC(=O)[C@@H](NC(=O)[C@H](Cc1ccccc1)NC(=O)[C@@H](NC(=O)CNC(=O)[C@H](CCC(N)=O)NC(=O)C(C)(C)NC(=O)[C@@H](N)Cc1c[nH]cn1)[C@@H](C)O)[C@@H](C)O)C(=O)N[C@@H](CC(=O)O)C(=O)N[C@@H](CO)C(=O)N[C@@H](CCCNC(=N)N)C(=O)N[C@@H](CCCNC(=N)N)C(=O)N[C@@H](C)C(=O)N[C@@H](CCCNC(=N)N)C(=O)N[C@@H](CC(=O)O)C(=O)N[C@@H](Cc1ccccc1)C(=O)N[C@H](C(=O)N[C@@H](CCCCNC(=O)CC[C@H](NC(=O)CC[C@H](NC(=O)COCCOCCNC(=O)COCCOCCNC(=O)CC[C@H](NC(=O)CCCCCCCCCCCCCCCCC(=O)O)C(=O)O)C(=O)O)C(=O)O)C(=O)N[C@@H](Cc1c[nH]c2ccccc12)C(=O)N[C@@H](CC(C)C)C(=O)N[C@@H](CC(C)C)C(=O)N[C@@H](CO)C(=O)N[C@H](C(N)=O)[C@@H](C)O)C(C)C` [Example 3, N^ε24-[(4S)-4-carboxy-4-[[(4S)-4-carboxy-4-[[2-[2-[2-[[2-[2-[2-[[(4S)-4-carboxy-4-(17-carboxyheptadecanoylamino)butanoyl]amino]ethoxy]ethoxy]acetyl]amino]ethoxy]ethoxy]acetyl]amino]butanoyl]amino]butanoyl]-[Aib2,Leu10,Arg20,Lys24,Leu27,Ser28]-Glucagon amide] (H-H[Aib]QGTFTSDLSKYLDSRRARDFVK([γGlu-γGlu-AEEA-AEEA-γGlu-C18 diacid])WLLST-NH2; N-terminus assumed), the concentration for a half-maximal effect (EC50) is 0.006 nM.
